Measured values taken from patent publication US20220387377A1, “(+)-CIS TETRAHYDROCANNABINOL ((+)-CIS-THC) FOR USE AS A MEDICAMENT” (GW Research Limited, priority 2019, published 2022).
Entries after “also recorded” stand apart in the source; their conditions may differ.

Assays:
[1] = depending on the assay; cited from earlier work
[2] = system: withdrawal threshold on hot plate set at 52° C.; assay: Mouse hotplate test (anti-nociception); format: in vivo
Description: The efficacy of (+)-cis-THC was tested in a mouse model of pain, the hotplate test.
Mice underwent a minimum habituation period of 7 days prior to study commencement. Naïve mice were acclimatised to the procedure room in their home cages, with food and water available ad libitum.
Animals were treated with either treatment vehicle, (+)-cis-THC at 1,15, 50,100, 125 and 150 mg/kg at 10 ml/kg i.p. or Morphine 10 mg/kg or Morphine vehicle (Saline) at 10 ml/kg i.p.
Animals were placed onto a hot plate set at 52° C. and time to withdrawal threshold (first response of lifting, licking front or hind paws or trying to escape) was taken at 1-hour post treatment, or at 0.5 hour after the positive control.
Animals were culled by a schedule 1 method, immediately after the measurement.
Data were analysed by comparing withdrawal thresholds back to Vehicle treated group

[3] = system: tonic hind limb convulsions induced by MES; assay: Mouse supramaximal electroshock seizure (MES) test; format: in vivo; set-up: key to Significance of inhibition of tonic hindlimb seizures vs vehicle (Fisher's test): * p < 0.05; *** p < 0.001; ns: Ns: non significantly different from vehicle control (Fisher's test)
Description: The efficacy of (+)-cis-THC was tested in a mouse model of seizure, the maximal electroshock (MES) test.
Mice were administered MES (30 mA, rectangular current: 0.6 ms pulse width, 0.2 s duration, 50 Hz) via corneal electrodes connected to a constant current shock generator (Ugo Basile: type 7801) to reliably produce tonic hind limb convulsions. The number of tonic convulsions was recorded.
Sixteen mice were studied per group. The test was performed blind.
The test substance, (+)-cis-THC, was evaluated at 4 doses (10, 50, 100 and 150 mg/kg), administered i.p. 60 minutes before MES, and compared with a vehicle control group (administered under the same experimental conditions).
Valproate (positive control) was administered at 250 mg/kg i.p. 30 minutes before MES, was used as a reference substance and was compared with a vehicle group (administered i.p. 60 minutes before MES).
Data was analysed by comparing treated groups with the appropriate vehicle control using 2-tailed Fisher's Exact Probability tests (p<0.05 considered significant).

[4] = 50 mg/kg I.P., 60 mins before MES
[5] = 100 mg/kg I.P., 60 mins before MES
[6] = 150 mg/kg I.P., 60 mins before MES
[7] = 250 mg/kg I.P., 30 mins before MES
[8] = 10 mg/kg I.P., 0.5 hour after treatment, hot plate 52° C.

## CCCCCc1cc(O)c2c(c1)OC(C)(C)[C@@H]1CCC(C)=C[C@@H]21 [(−)-trans-THC, (−)-trans-delta-9-tetrahydrocannabinol]
[1]
  Potency relative to the (+)-trans-THC isomer: 6-100 times

## CCCCCc1cc(O)c2c(c1)OC(C)(C)[C@@H]1CCC(C)=C[C@H]21 (relative stereo) [(+)-cis-THC, (+)-cis-delta-9-tetrahydrocannabinol]
[2]; 1 mg/kg I.P., 1-hour post treatment, hot plate 52° C.
  Withdrawal threshold (sec) Mean +/− SEM: 10.23 ± 0.64 s
[2]; 15 mg/kg I.P., 1-hour post treatment, hot plate 52° C.
  Withdrawal threshold (sec) Mean +/− SEM: 9.96 ± 0.73 s
[2]; 50 mg/kg I.P., 1-hour post treatment, hot plate 52° C.
  Withdrawal threshold (sec) Mean +/− SEM: 9.80 ± 0.80 s
[2]; 100 mg/kg I.P., 1-hour post treatment, hot plate 52° C.
  Withdrawal threshold (sec) Mean +/− SEM: 10.67 ± 0.77 s
[2]; 125 mg/kg I.P., 1-hour post treatment, hot plate 52° C.
  Withdrawal threshold (sec) Mean +/− SEM: 11.18 ± 1.18 s
[2]; 150 mg/kg I.P., 1-hour post treatment, hot plate 52° C.
  Withdrawal threshold (sec) Mean +/− SEM: 11.68 ± 0.52 s
[2]; all doses tested, 1 to 150 mg/kg i.p.
  Anti-nociceptive effect (withdrawal threshold compared to vehicle): none of the doses tested produced a significant difference; also recorded: no anti-nociceptive effect
[3]; 10 mg/kg I.P., 60 mins before MES
  Significance of inhibition of tonic hindlimb seizures vs vehicle (Fisher's test): ns
[3]; [4]
  % change from vehicle in number of tonic clonic seizures after MES: 18.8%
  Significance of inhibition of tonic hindlimb seizures vs vehicle (Fisher's test): ns
[3]; [5]
  % change from vehicle in number of tonic clonic seizures after MES: 25.0%
  Significance of inhibition of tonic hindlimb seizures vs vehicle (Fisher's test): ns
[3]; [6]
  % change from vehicle in number of tonic clonic seizures after MES: 37.5%
  Significance of inhibition of tonic hindlimb seizures vs vehicle (Fisher's test): * (* p < 0.05)
[3]; 10, 50, 100 and 150 mg/kg i.p. 60 minutes before MES
  Anti-convulsant effect in the MES model (overall): dose-related increase in the percentage change; also recorded: significant anti-convulsant effect

## CCCC(CCC)C(=O)O [Valproate, reference compound]
[3]; [7]
  % change from vehicle in number of tonic clonic seizures after MES: 100.0%
  Significance of inhibition of tonic hindlimb seizures vs vehicle (Fisher's test): *** (*** p < 0.001)
[3]; 250 mg/kg I.P., 30 mins before MES, listed as valproate
  % change from vehicle in number of tonic clonic seizures after MES: 100%

## CN1CC[C@]23c4c5ccc(O)c4O[C@H]2[C@@H](O)C=C[C@H]3[C@H]1C5 [Morphine, reference compound]
[2]; [8]
  Significance of withdrawal threshold vs vehicle control: *** (*** p < 0.001 significant when compared to the corresponding vehicle control (Fisher's test).)
  Withdrawal threshold (sec) Mean +/− SEM: 17.48 ± 1.08 s
[2]; 10 mg/kg I.P., 0.5 hour after treatment, hot plate 52° C., listed as morphine
  Withdrawal threshold (sec) Mean +/− SEM: significant increase in the withdrawal threshold
